Assays:
[1] = cited from earlier work
GLUT4 [2] = target: T1, GLUT4 (Rattus norvegicus, UniProt P19357); details: primary rat adipocytes (Murata, Hruz et al.); read-out: Ki, reversible non-competitive GLUT4 inhibition; cited from earlier work
T1 construct: host or cells: primary rat adipocytes
T1 sequence (P19357 1-509): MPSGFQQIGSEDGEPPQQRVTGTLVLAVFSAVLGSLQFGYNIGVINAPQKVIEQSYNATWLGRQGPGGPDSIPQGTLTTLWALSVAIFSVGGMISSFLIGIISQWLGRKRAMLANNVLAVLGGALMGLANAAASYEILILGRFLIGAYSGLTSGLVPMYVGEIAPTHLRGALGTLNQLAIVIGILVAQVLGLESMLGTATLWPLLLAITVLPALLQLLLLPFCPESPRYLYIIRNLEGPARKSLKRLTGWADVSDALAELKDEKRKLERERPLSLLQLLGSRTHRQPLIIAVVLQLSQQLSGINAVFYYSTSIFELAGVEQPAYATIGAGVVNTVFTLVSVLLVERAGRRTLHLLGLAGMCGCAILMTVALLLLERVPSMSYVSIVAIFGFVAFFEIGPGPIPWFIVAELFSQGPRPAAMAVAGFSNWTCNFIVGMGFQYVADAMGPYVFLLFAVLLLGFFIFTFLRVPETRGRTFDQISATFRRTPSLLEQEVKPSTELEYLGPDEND

U266 myeloma cells = test: Doxorubicin cell death in U266 cells in 11 or 0.5 mM glucose medium (flow cytometry, DAPI staining); type: cell-based, human; details: 0.5 mM vs 11 mM glucose medium, 48 hours
Procedure: (A) Primary normal B lymphocytes and CD138+ cells isolated from an MM patient and L363 cells were cultured in medium containing 0 or 5 mM glucose for 48 (NBL, L363) or 72 (MM Patient) hours. Cell viability was determined by flow cytometric analysis of AnnexinV/DAPI staining and normalized to 5 mM samples. Data are means±SEM (n=2). (B) Indicated cells were cultured as in (A) with various concentrations of glucose for 72 hours. Viable cell quantities were determined by MTS assay and normalized to 5 mM samples. Data are means±SEM. (C) U266 myeloma cells were cultured in 11 or 0.5 mM glucose-containing medium for 48 hours in the presence of the indicated concentrations of doxorubicin. Cell death was determined by flow cytometric analysis of DAPI staining. Data are means±SEM. *p<0.05 **p<0.01.
Glucose Deprivation Attenuates Proliferation, Viability and Chemoresistance of Myeloma Cells. To independently ascertain the contribution of glucose in maintaining myeloma cell proliferation and survival we cultured L363 myeloma cells, normal B lymphocytes (NBL), and primary MM cells in medium containing either a physiological glucose concentration (5 mM) or medium devoid of glucose and assessed the impact on cellular viability (FIG. 2 A). Under these conditions, greater than 95% of L363 cells and 50% of the primary MM cells undergo apoptosis while the viability of normal cells is not impacted. […]

[3] = humans (Hsu, Granneman et al. 1997); cited from earlier work
[4] = system: KMS11 stable cell lines expressing GLUT1; test: Glucose consumption in stable KMS11 cell lines expressing GLUT1 or control, treated with ritonavir; type: cell-based, human; details: KMS11 stable line expressing GLUT1, 5 hours
Procedure: (§1) (A) KMS11 and (B) L363 cells were plated in 5 mM glucose medium with ritonavir or DMSO (D) for 17 hours. Glucose consumption rates are normalized to untreated cells (not shown). (C) KMS11 and (D) L363 cells were treated with ritonavir or DMSO for 12 hours. Relative viable cell numbers were determined by MTS assay and normalized to untreated cells (not shown). (E) KMS11 and (F) L363 cells were treated with 20 μM ritonavir with or without 0.075 (KMS11) and 0.025 μM (L363) doxorubicin or the combination for 72 hrs and cellular viability assessed by AnnexinV/DAPI staining. (G) Stable KMS11 cell lines were generated expressing empty vector or GLUT1 and GLUT1 levels were assessed by immunoblot. Representative blot is shown. N.S. indicates non-specific band. (H) Stable cell lines from part G were treated with DMSO or ritonavir (Rit) for 5 hours and glucose consumption was assessed. (1) Cell proliferation was measured in the stable cell lines described in part G treated with ritonavir (Rit) or DMSO for 72 hours. A representative experiment is shown. (J) Cell proliferation rates from multiple experiments represented by part G are normalized to DMSO-treated cells. (K) Primary myeloma cells were treated with DMSO or ritonavir for 72 hours before AnnexinV/DAPI staining. Values are normalized to DMSO-treated samples (n=1 for each patient sample). Data are means±SEM with n≧3. *P<0.05 **P<0.01 ***P<0.005.

L363 cells [5] = test: Ritonavir with or without doxorubicin, viability by AnnexinV/DAPI staining, L363; type: cell-based, human; details: L363, 20 μM ritonavir with 0.025 μM doxorubicin, 72 hrs
Procedure: as §1

L363 cells [6] = test: Glucose consumption rate with ritonavir, L363; type: cell-based, human; details: L363, 5 mM glucose medium, 17 hours
Procedure: as §1

L363 cells [7] = test: Relative viable cell number by MTS assay with ritonavir, L363; type: cell-based, human
Procedure: as §1

KMS11 cells [8] = test: Glucose consumption rate with ritonavir, KMS11; type: cell-based, human; details: KMS11, 5 mM glucose medium, 17 hours
Procedure: as §1

primary myeloma cells = test: Cytotoxicity of ritonavir towards primary myeloma cells (AnnexinV/DAPI staining); type: cell-based, human; details: 20 μM ritonavir, 72 hours
Procedure: as §1

[9] = system: KMS11 stable cell lines expressing GLUT1; test: Cell proliferation in stable KMS11 cell lines expressing GLUT1 or control, treated with ritonavir; type: cell-based, human; details: KMS11 stable line expressing GLUT1, 72 hours
Procedure: as §1

KMS11 cells [10] = test: Relative viable cell number by MTS assay with ritonavir, KMS11; type: cell-based, human
Procedure: as §1

KMS11 cells [11] = test: Ritonavir with or without doxorubicin, viability by AnnexinV/DAPI staining, KMS11; type: cell-based, human; details: KMS11, 20 μM ritonavir with 0.075 μM doxorubicin, 72 hrs
Procedure: as §1

[12] = epirubicin plus lonidamine vs epirubicin alone; did not reach statistical significance; cited from earlier work
MM.1S cells = test: Glucose consumption of MM.1S cells treated with 8-NH2-Ado; type: cell-based, human; details: 3 μM 8-NH2-Ado, within the first five hours of treatment
Procedure: (§2) (A) Measurement of glucose consumed by MM.1S cells treated with 3 μM 8-NH2-Ado for 5 hours. Data are means±SEM (n=3). (B) MM.1S cells were treated for the indicated number of hours with 3 μM 8-NH2-Ado or not (C) prior to lysis and immunoblot analysis of GLUT1 and GLUT4 expression. (C) Immunostaining of GLUT1 and GLUT4 in MM.1S cells treated with 3 μM 8 NH2-Ado for 5 hours. Arrow indicates intracellular aggregation of GLUT4.
Our laboratory has worked extensively on defining the mechanism of action of purine analogues 8-amino-adenosine (8-NH2-Ado) and 8-chloro-adenosine (Gandhi, Ayres et al. 2001; Krett, Davies et al. 2004; Ghias, Ma et al. 2005). In our recent publication (Shanmugam, McBrayer et al. 2009) we report that 8-NH2-Ado targets cellular metabolism by inducing a rapid decline in glucose consumption, the magnitude of which correlates with toxicity in various myeloma cell lines.
To explore mechanisms underlying the decrease in glucose consumption elicited by 8-NH2-Ado in the MM.1S cell line, we examined the regulation of glucose transporters that regulate the primary rate limiting step in glycolysis (Rodriguez-Enriquez, Marin-Hernandez et al. 2009). […] Since the activity of these proteins depends upon insertion into the plasma membrane, we next evaluated subcellular distribution by immunofluorescence confocal microscopy (FIG. 1C). […]

GLUT4 [13] = test: Immunostaining / confocal microscopy of GLUT4 subcellular localization in MM.1S cells; type: cell-based, human; details: 3 μM 8-NH2-Ado, 5 hours, aggregation of GLUT4 within the trans-golgi network
Procedure: as §2
To explore mechanisms underlying the decrease in glucose consumption elicited by 8-NH2-Ado in the MM.1S cell line, we examined the regulation of glucose transporters that regulate the primary rate limiting step in glycolysis (Rodriguez-Enriquez, Marin-Hernandez et al. 2009). We examined expression and subcellular localization of GLUT1 and GLUT4, two highly expressed glucose transporters in B lymphocytes. Despite a 40% decline in glucose consumption rates within the first five hours of treatment (FIG. 1A), no substantial changes in GLUT1 or GLUT4 expression levels are observed at this time (FIG. 1B). The expression of both GLUT1 and 4 are diminished by 24 hours, potentially contributing to the further decline in glucose transport rates seen between 5 and 17 hours. Since the activity of these proteins depends upon insertion into the plasma membrane, we next evaluated subcellular distribution by immunofluorescence confocal microscopy (FIG. 1C). […]

[14] = 2DG and docetaxel, evaluable pool of 18 patients

O=CC[C@@H](O)[C@H](O)[C@H](O)CO [2DG]
adverse event noted in multiple patients ([1]; 2DG and docetaxel phase I trial): Grade 3 hyperglycemia
cases of disease stabilization [1, 14]: six
partial response [1, 14]: one

CC(C)(C)NC(=O)[C@@H]1CN(Cc2cccnc2)CCN1C[C@@H](O)C[C@@H](Cc1ccccc1)C(=O)N[C@H]1c2ccccc2C[C@H]1O [indinavir]
Ki (GLUT4 [2]): 15 µM

COc1cccc2c1C(=O)c1c(O)c3c(c(O)c1C2=O)C[C@@](O)(C(=O)CO)C[C@@H]3O[C@H]1C[C@H](N)[C@H](O)[C@H](C)O1 [doxorubicin]
sensitivity to doxorubicin under glucose-limiting conditions (U266 myeloma cells): significantly greater sensitivity

CC(C)c1nc(CN(C)C(=O)N[C@H](C(=O)N[C@@H](Cc2ccccc2)C[C@H](O)[C@H](Cc2ccccc2)NC(=O)OCc2cncs2)C(C)C)cs1 [ritonavir]
peak plasma level routinely achieved in humans [3]: ~20 µM
effect of GLUT1 expression on ritonavir-induced glucose transport inhibition [4]: completely mitigated
sensitization to doxorubicin (L363 cells [5]): recapitulates the doxorubicin-sensitizing effects of glucose limitation
glucose transport (glucose consumption rate) (L363 cells [6]): dose-dependent abrogation
proliferation (relative viable cell numbers, MTS) (L363 cells [7]): dose-dependent abrogation
glucose transport (glucose consumption rate) (KMS11 cells [8]): dose-dependent abrogation
cell death induction in patient samples (primary myeloma cells): a range of cell death induction
effect of GLUT1 expression on response to prolonged ritonavir treatment (proliferation) [9]: robust resistance
proliferation (relative viable cell numbers, MTS) (KMS11 cells [10]): dose-dependent abrogation
sensitization to doxorubicin (KMS11 cells [11]): recapitulates the doxorubicin-sensitizing effects of glucose limitation

O=C(O)c1nn(Cc2ccc(Cl)cc2Cl)c2ccccc12 [lonidamine]
increase in overall response rate [12]: 9%

Nc1ncnc2c1nc(N)n2[C@@H]1O[C@H](CO)[C@@H](O)[C@H]1O [8-NH2-Ado, 8-amino-adenosine]
decline in glucose consumption rates (MM.1S cells): 40%
basal cell surface localization of GLUT4 (GLUT4 [13]): reduces this basal cell surface localization of GLUT4

— US9207243B2, “Use of GLUT4 inhibitors and DNA damaging agents for treating multiple myeloma” (Northwestern University, priority 2011, dated 2015)
